Reference: patent US9850283B2, “Macrocyclic inhibitors of the PD-1/PD-L1 and CD80(B7-1)/PD-L1 protein/protein interactions” (BRISTOL-MYERS SQUIBB COMPANY, priority 2013, dated 2017)
Read-outs that look alike come from different tables or passages of the source. Starred links: 1 amine or outer side, 2 acyl side, 3 side chain; linkers in the order of their positions; H or OH if unused. Positions of bridges follow the written chain, without caps; N, C: chain ends. Non-standard residues stand in square brackets, D forms with d. Residues, ends and D or L forms follow the SMILES beside them. ξ: configuration not given here. Phe(4-CHF2) = N[C@@H](Cc1ccc(C(F)F)cc1)C(=O)O; X10 = O=C([C@H](Cc1ccc(F)c(Cl)c1)N[*:1])[*:2]; X1 = C[C@@H]1C[C@H](C(=O)[*:2])N([*:1])C1; Phe(4-Cl) = N[C@@H](Cc1ccc(Cl)cc1)C(=O)O; Bta = N[C@@H](Cc1csc2ccccc12)C(=O)O; NMeIle(3ξ) = CCC(C)[C@H](NC)C(=O)O; Hyp = O=C(O)[C@@H]1C[C@@H](O)CN1; NMeF = CN[C@@H](Cc1ccccc1)C(=O)O; NMeNle = CCCC[C@H](NC)C(=O)O; NMeA = CN[C@@H](C)C(=O)O; Orn = NCCC[C@H](N)C(=O)O; Dab = NCC[C@H](N)C(=O)O; Dap = NC[C@H](N)C(=O)O; Sar = CNCC(=O)O

Key:
[1] = biological target: T1, Human PD-L1/PD-1 (Homo sapiens, UniProt Q9NZQ7); experiment: HTRF PD-1-Ig/PD-L1-His binding assay (human PD-L1); conditions: cluster symbol; read-out: HTRF IC50 cluster
T1 construct: made in house; host or cells: HEK293T
Outline: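 Steps: truncated PD-1-Ig and PD-L1-His fusions are incubated in dPBS containing 0.1% (w/v) BSA and 0.05% (v/v) Tween-20. Detection antibodies are then added (Eu cryptate anti-Ig at 1 nM final, APC anti-His at 20 nM final), and time-resolved FRET is measured.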

[2] = biological target: T2, LK35.2-hPD-L1 cells / PE-labeled PD-1-Ig (Homo sapiens, UniProt Q9NZQ7); experiment: LK35.2-hPD-L1 cell binding high-content screening assay; type: cell-based; conditions: cluster symbol, read-out: CBA IC50 cluster
T2 construct: expressed in transfected cells; host or cells: LK35.2 mouse B cell line
Outline: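 Binding of PE-conjugated human PD-1-Ig (1 nM final) to human PD-L1 stably expressed on a mouse B-cell line (LK35.2) was measured by high-content imaging after washes. Compound and labeled PD-1-Ig were co-incubated 1 h at 37 °C with cells in RPMI/10% FCS.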

[3] = cell binding assay, cell line not given
[4] = cell line of CBA not given (LK35.2-hPD-L1 or 293T-hPD-L1)

T1 sequence (Q9NZQ7 with tags, fused parts or gaps): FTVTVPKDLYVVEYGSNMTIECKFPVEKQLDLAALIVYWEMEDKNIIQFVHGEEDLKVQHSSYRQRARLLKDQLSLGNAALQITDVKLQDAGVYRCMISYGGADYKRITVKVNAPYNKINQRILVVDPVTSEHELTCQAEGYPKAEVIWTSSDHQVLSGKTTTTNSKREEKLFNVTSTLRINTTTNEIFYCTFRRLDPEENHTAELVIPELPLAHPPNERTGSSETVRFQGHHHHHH
T2 sequence (Q9NZQ7 19-290): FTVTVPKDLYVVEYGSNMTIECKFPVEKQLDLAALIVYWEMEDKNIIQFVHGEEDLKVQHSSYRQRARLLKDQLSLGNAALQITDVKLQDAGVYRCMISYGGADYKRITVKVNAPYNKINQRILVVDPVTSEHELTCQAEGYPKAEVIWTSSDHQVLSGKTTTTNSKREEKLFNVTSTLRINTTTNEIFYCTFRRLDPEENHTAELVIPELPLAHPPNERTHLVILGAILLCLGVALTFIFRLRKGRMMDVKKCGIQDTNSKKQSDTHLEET

Compound | IC50 [1] [nM] | IC50 [2, 3] [nM] | IC50 [2, 4] [nM]
CCCC[C@H]1C(=O)N(C)CC(=O)N[C@@H](CC(=O)O)C(=O)N[C@@H](C(C)C)C(=O)N(C)[C@@H](Cc2ccccc2)C(=O)N[C@@H](Cc2ccc(O)cc2)C(=O)N(C)CC(=O)N[C@H](Cc2c[nH]c3ccccc23)C(=O)N[C@@H](Cc2ccc(O)cc2)C(=O)N[C@@H](CC(C)C)C(=O)N[C@H](C(=O)NCC(N)=O)CSCC(=O)N[C@@H](Cc2ccccc2)C(=O)N(C)[C@@H](Cc2ccccc2)C(=O)N1C [Example 3563] (HELM PEPTIDE1{[O=C(C[*:3])[*:2]].F.[meF].[CCCC[C@@H](C(=O)[*:2])N(C)[*:1]].[Sar].D.V.[meF].Y.[Sar].[dW].Y.L.C.G.[am]}$PEPTIDE1,PEPTIDE1,1:R3-14:R3$$$V2.0) | > 30.5 | > 74.3 | 
CCCC[C@H]1C(=O)N(C)[C@@H](CCCC)C(=O)N[C@@H](CCCNC(=N)N)C(=O)N[C@H](C(=O)NCC(=O)N[C@@H](C)C(N)=O)CSCC(=O)N[C@@H](Cc2ccc(O)cc2)C(=O)N(C)[C@@H](C)C(=O)N[C@@H](CC(N)=O)C(=O)N2CCC[C@H]2C(=O)N[C@@H](Cc2cnc[nH]2)C(=O)N[C@@H](CC(C)C)C(=O)N2C[C@H](O)C[C@H]2C(=O)N[C@@H](Cc2c[nH]c3ccccc23)C(=O)N[C@@H](CO)C(=O)N[C@@H](Cc2c[nH]c3ccccc23)C(=O)N1C [Example 6019] ({CH2CO}-Y[NMeA]NPHL[Hyp]WSW[NMeNle][NMeNle]RCGA-NH2; thioether N-14) | 0.385 to 6.74 | 0.158 to 4.71 | 
CCCC[C@H]1C(=O)N(C)CC(=O)N[C@@H](CC(=O)O)C(=O)N[C@@H](C(C)C)C(=O)N(C)[C@@H](Cc2ccccc2)C(=O)N[C@@H](Cc2ccc(O)cc2)C(=O)N(C)CC(=O)N[C@@H](Cc2c[nH]c3ccccc23)C(=O)N[C@@H](Cc2ccc(O)cc2)C(=O)N[C@@H](CC(C)C)C(=O)N[C@H](C(=O)NCC(N)=O)CSCC(=O)N[C@@H](Cc2ccc(F)c(Cl)c2)C(=O)N(C)[C@@H](Cc2ccccc2)C(=O)N1C [Example 3567] ({CH2CO}-[X10][NMeF][NMeNle][Sar]DV[NMeF]Y[Sar]WYLCG-NH2; thioether N-13) | 0.385 to 6.74 | 0.158 to 4.71 | 
CCCC[C@H]1C(=O)N(C)[C@@H](CCCC)C(=O)N[C@@H](CCCNC(=N)N)C(=O)N[C@H](C(=O)NCC(N)=O)CSCC(=O)N[C@@H](Cc2ccc(O)cc2)C(=O)N(C)[C@@H](C)C(=O)N[C@@H](CC(N)=O)C(=O)N2CCC[C@H]2C(=O)N[C@@H](Cc2cnc[nH]2)C(=O)N[C@@H](CC(C)C)C(=O)N2C[C@H](O)C[C@H]2C(=O)N[C@@H](Cc2c[nH]c3ccccc23)C(=O)N[C@@H](CN)C(=O)N[C@@H](Cc2c[nH]c3ccccc23)C(=O)N1C [Example 1135] ({CH2CO}-Y[NMeA]NPHL[Hyp]W[Dap]W[NMeNle][NMeNle]RCG-NH2; thioether N-14) | 6.76 to 30.3 |  | 0.158 to 4.71
CCCC[C@H]1C(=O)N(C)[C@@H](C(C)CC)C(=O)N[C@@H](CN)C(=O)N[C@H](C(=O)NCC(N)=O)CSCC(=O)N[C@@H](Cc2ccc(O)cc2)C(=O)N(C)[C@@H](C)C(=O)N[C@@H](CC(N)=O)C(=O)N2CCC[C@H]2C(=O)N[C@@H](Cc2c[nH]cn2)C(=O)N[C@@H](CCC(=O)O)C(=O)N2C[C@H](O)C[C@H]2C(=O)N[C@@H](Cc2c[nH]c3ccccc23)C(=O)N[C@@H](CCN)C(=O)N[C@@H](Cc2c[nH]c3ccccc23)C(=O)N1C (stereo partly shown) [Example 5142] ({CH2CO}-Y[NMeA]NPHE[Hyp]W[Dab]W[NMeNle][NMeIle(3ξ)][Dap]CG-NH2; thioether N-14) | 6.76 to 30.3 | 4.78 to 72.9 | 
CCCC[C@H]1C(=O)N(C)[C@@H](CCCC)C(=O)N[C@@H](CCCNC(=N)N)C(=O)N[C@H](C(=O)NCC(N)=O)CSCC(=O)N[C@@H](Cc2ccc(O)cc2)C(=O)N(C)[C@@H](C)C(=O)N[C@@H](CC(N)=O)C(=O)N2CCC[C@H]2C(=O)N[C@@H](Cc2cnc[nH]2)C(=O)N[C@@H](CC(C)C)C(=O)N2CC(F)(F)C[C@H]2C(=O)N[C@@H](Cc2c[nH]c3ccccc23)C(=O)N[C@@H](CO)C(=O)N[C@@H](Cc2c[nH]c3ccccc23)C(=O)N1C [Example 1126] | 6.76 to 30.3 |  | 0.158 to 4.71
CCCC[C@H]1C(=O)N(C)[C@@H](CCCC)C(=O)N[C@@H](CCCNC(=N)N)C(=O)N[C@H](C(=O)NCC(N)=O)CSCC(=O)N[C@@H](Cc2ccc(C(F)F)cc2)C(=O)N(C)[C@@H](C)C(=O)N[C@@H](CC(N)=O)C(=O)N2CCC[C@H]2C(=O)N[C@@H](Cc2cnc[nH]2)C(=O)N[C@@H](CC(C)C)C(=O)N2CCC[C@H]2C(=O)N[C@@H](Cc2c[nH]c3ccccc23)C(=O)N[C@@H](CO)C(=O)N[C@@H](Cc2csc3ccccc23)C(=O)N1C [Example 1044] ({CH2CO}-[Phe(4-CHF2)][NMeA]NPHLPWS[Bta][NMeNle][NMeNle]RCG-NH2; thioether N-14) | > 30.5 |  | > 74.3
CCCC[C@H]1C(=O)N(C)[C@@H](CCCC)C(=O)N[C@@H](CCCNC(=N)N)C(=O)N[C@H](C(=O)NCC(N)=O)CSCC(=O)N[C@@H](Cc2ccc(Cl)cc2)C(=O)N(C)[C@@H](C)C(=O)N[C@@H](CC(N)=O)C(=O)N2CCC[C@H]2C(=O)N[C@@H](Cc2cnc[nH]2)C(=O)N[C@@H](CC(C)C)C(=O)N2CCC[C@H]2C(=O)N[C@@H](Cc2c[nH]c3ccccc23)C(=O)N[C@@H](CO)C(=O)N[C@@H](Cc2csc3ccccc23)C(=O)N1C [Example 1124] ({CH2CO}-[Phe(4-Cl)][NMeA]NPHLPWS[Bta][NMeNle][NMeNle]RCG-NH2; thioether N-14) | 6.76 to 30.3 |  | 4.78 to 72.9
CCCC[C@H]1C(=O)N2C[C@H](C)C[C@@H]2C(=O)N[C@@H](CC(=O)O)C(=O)N[C@@H](C(C)C)C(=O)N(C)[C@@H](Cc2ccccc2)C(=O)N[C@@H](Cc2ccc(O)cc2)C(=O)N(C)CC(=O)N[C@@H](Cc2c[nH]c3ccccc23)C(=O)N[C@@H](Cc2ccc(O)cc2)C(=O)N[C@@H](CC(C)C)C(=O)N[C@H](C(=O)NCC(N)=O)CSCC(=O)N[C@@H](Cc2ccccc2)C(=O)N(C)[C@@H](Cc2ccccc2)C(=O)N1C [Example 3580] ({CH2CO}-F[NMeF][NMeNle][X1]DV[NMeF]Y[Sar]WYLCG-NH2; thioether N-13) | 0.385 to 6.74 | 0.158 to 4.71 | 
CC[C@H](C)[C@H]1C(=O)N(C)CC(=O)N[C@@H](CC(=O)O)C(=O)N[C@@H](C(C)C)C(=O)N(C)[C@@H](Cc2ccccc2)C(=O)N[C@@H](Cc2ccc(O)cc2)C(=O)N(C)CC(=O)N[C@@H](Cc2c[nH]c3ccccc23)C(=O)N[C@@H](Cc2ccc(O)cc2)C(=O)N[C@@H](CC(C)C)C(=O)N[C@H](C(=O)NCC(N)=O)CSCC(=O)N[C@@H](Cc2ccccc2)C(=O)N(C)[C@@H](Cc2ccccc2)C(=O)N1C [Example 3142] (HELM PEPTIDE1{[O=C(C[*:3])[*:2]].F.[meF].[meI].[Sar].D.V.[meF].Y.[Sar].W.Y.L.C.G.[am]}$PEPTIDE1,PEPTIDE1,1:R3-14:R3$$$V2.0) | 6.76 to 30.3 |  | 4.78 to 72.9
CCCC[C@H]1C(=O)N(C)[C@@H](CCCC)C(=O)N[C@@H](C)C(=O)N[C@H](C(N)=O)CSCC(=O)N[C@@H](Cc2ccc(O)cc2)C(=O)N(C)[C@@H](C)C(=O)N[C@@H](CC(=O)O)C(=O)N2CCC[C@H]2C(=O)N[C@@H](Cc2cnc[nH]2)C(=O)N[C@@H](CCCN)C(=O)N2C[C@H](O)C[C@H]2C(=O)N[C@@H](Cc2c[nH]c3ccccc23)C(=O)N[C@@H](CO)C(=O)N[C@@H](Cc2c[nH]c3ccccc23)C(=O)N1C [Example 1231] ({CH2CO}-Y[NMeA]DPH[Orn][Hyp]WSW[NMeNle][NMeNle]AC-NH2; thioether N-14) | 0.385 to 6.74 |  | 0.158 to 4.71
